From the CheMixHub viscosity set
± gives the uncertainty stated by the source.

Experiment: xn = mol fraction of the nth substance listed

Nc1ccccc1 + CS(C)=O
viscosity [mPa·s], 101 kPa
Details | 298.15 K | 302.4 K | 308.15 K | 318.15 K
x2 = 0.0786 | – | 5.806 | – | –
x2 = 0.1 | 3.83 ± 0.039 | – | 2.841 ± 0.03 | 2.194 ± 0.023
x2 = 0.2 | 3.94 ± 0.04 | – | 2.925 ± 0.031 | 2.259 ± 0.024
x2 = 0.2281 | – | 3.998 | – | –
x2 = 0.3 | 3.99 ± 0.04 | – | 2.98 ± 0.031 | 2.3 ± 0.025
x2 = 0.4 | 3.938 ± 0.039 | – | 2.958 ± 0.031 | 2.294 ± 0.025
x2 = 0.4344 | – | 4.788 | – | –
x2 = 0.5 | 3.756 ± 0.037 | – | 2.839 ± 0.029 | 2.232 ± 0.024
x2 = 0.5614 | – | 5.863 | – | –
x2 = 0.6 | 3.445 ± 0.034 | – | 2.644 ± 0.027 | 2.106 ± 0.022
x2 = 0.6809 | – | 6.538 | – | –
x2 = 0.7 | 3.055 ± 0.03 | – | 2.397 ± 0.024 | 1.938 ± 0.02
x2 = 0.8 | 2.664 ± 0.026 | – | 2.134 ± 0.021 | 1.746 ± 0.018
x2 = 0.8473 | – | 6.37 | – | –
x2 = 0.9 | 2.313 ± 0.022 | – | 1.886 ± 0.019 | 1.529 ± 0.015

Cc1ccc(NC(=O)NCCCCCCCCCCC(C)C)cc1NC(=O)NCCCCCCCCCCC(C)C + CCCCC
Details | viscosity [mPa·s]
293.15 K, 100 kPa, x1 = 0.0001 | 204 ± 16

CCCC(=O)OC + CCCCCCCC
101.33 kPa
Details | viscosity [mPa·s]
293.15 K, x1 = 0.0893 | 0.53 ± 0.004
293.15 K, x1 = 0.137 | 0.525 ± 0.004
293.15 K, x1 = 0.2169 | 0.519 ± 0.004
293.15 K, x1 = 0.3101 | 0.514 ± 0.004
293.15 K, x1 = 0.3906 | 0.514 ± 0.004
293.15 K, x1 = 0.5062 | 0.516 ± 0.004
293.15 K, x1 = 0.6094 | 0.522 ± 0.004
293.15 K, x1 = 0.6977 | 0.529 ± 0.004
293.15 K, x1 = 0.795 | 0.54 ± 0.004
293.15 K, x1 = 0.8572 | 0.55 ± 0.004
293.15 K, x1 = 0.9222 | 0.562 ± 0.004
303.15 K, x1 = 0.1392 | 0.468 ± 0.004
303.15 K, x1 = 0.2271 | 0.462 ± 0.004
303.15 K, x1 = 0.315 | 0.459 ± 0.004
303.15 K, x1 = 0.4073 | 0.458 ± 0.004
303.15 K, x1 = 0.5146 | 0.459 ± 0.004
303.15 K, x1 = 0.607 | 0.464 ± 0.004
303.15 K, x1 = 0.6957 | 0.47 ± 0.004
303.15 K, x1 = 0.7994 | 0.48 ± 0.004
303.15 K, x1 = 0.8631 | 0.488 ± 0.004
303.15 K, x1 = 0.9198 | 0.497 ± 0.004
313.15 K, x1 = 0.07444 | 0.425 ± 0.003
313.15 K, x1 = 0.1338 | 0.42 ± 0.003
313.15 K, x1 = 0.2249 | 0.416 ± 0.003
313.15 K, x1 = 0.3123 | 0.413 ± 0.003
313.15 K, x1 = 0.3936 | 0.411 ± 0.003
313.15 K, x1 = 0.4968 | 0.413 ± 0.003
313.15 K, x1 = 0.6049 | 0.417 ± 0.003
313.15 K, x1 = 0.6981 | 0.423 ± 0.003
313.15 K, x1 = 0.8007 | 0.432 ± 0.003
313.15 K, x1 = 0.866 | 0.439 ± 0.003
313.15 K, x1 = 0.9319 | 0.448 ± 0.004

CCCBr + Cc1cc(C)cc(C)c1
308.15 K, 101 kPa
Details | viscosity [mPa·s]
x2 = 0.0819 | 0.4452 ± 0.0039
x2 = 0.1828 | 0.4586 ± 0.004
x2 = 0.298 | 0.4744 ± 0.0041
x2 = 0.4146 | 0.4872 ± 0.0042
x2 = 0.5062 | 0.4995 ± 0.0043
x2 = 0.5971 | 0.5145 ± 0.0044
x2 = 0.7035 | 0.5257 ± 0.0045
x2 = 0.8027 | 0.541 ± 0.0046
x2 = 0.8945 | 0.5538 ± 0.0047

Nc1ccccc1 + CC(C)=O
298.15 K, 101 kPa
Details | viscosity [mPa·s]
x1 = 0.0833 | 0.3644 ± 0.004
x1 = 0.1692 | 0.4238 ± 0.0045
x1 = 0.2591 | 0.5074 ± 0.0052
x1 = 0.3523 | 0.6194 ± 0.0062
x1 = 0.4492 | 0.7717 ± 0.0075
x1 = 0.5502 | 0.9752 ± 0.0092
x1 = 0.6556 | 1.252 ± 0.012
x1 = 0.7653 | 1.679 ± 0.015
x1 = 0.8805 | 2.259 ± 0.02

CCCCOC(=O)c1ccccc1 + CCCCCCCCCCCCCC
101 kPa
Details | viscosity [mPa·s]
298.15 K, x2 = 0.0346 | 2.623 ± 0.083
298.15 K, x2 = 0.0683 | 2.562 ± 0.081
298.15 K, x2 = 0.1072 | 2.49 ± 0.078
298.15 K, x2 = 0.1432 | 2.436 ± 0.077
298.15 K, x2 = 0.1795 | 2.38 ± 0.075
298.15 K, x2 = 0.2175 | 2.328 ± 0.074
298.15 K, x2 = 0.2506 | 2.282 ± 0.072
298.15 K, x2 = 0.2944 | 2.226 ± 0.071
298.15 K, x2 = 0.3362 | 2.186 ± 0.069
298.15 K, x2 = 0.3761 | 2.154 ± 0.069
298.15 K, x2 = 0.4036 | 2.128 ± 0.068
298.15 K, x2 = 0.472 | 2.08 ± 0.066
298.15 K, x2 = 0.5203 | 2.055 ± 0.066
298.15 K, x2 = 0.5754 | 2.03 ± 0.065
298.15 K, x2 = 0.6238 | 2.015 ± 0.065
298.15 K, x2 = 0.6833 | 1.995 ± 0.064
298.15 K, x2 = 0.7394 | 1.989 ± 0.064
298.15 K, x2 = 0.8084 | 1.99 ± 0.064
298.15 K, x2 = 0.8738 | 2.005 ± 0.065
308.15 K, x2 = 0.0474 | 2.117 ± 0.067
308.15 K, x2 = 0.0876 | 2.049 ± 0.065
308.15 K, x2 = 0.1255 | 1.995 ± 0.063
308.15 K, x2 = 0.1576 | 1.956 ± 0.062
308.15 K, x2 = 0.1932 | 1.916 ± 0.061
308.15 K, x2 = 0.2315 | 1.876 ± 0.059
308.15 K, x2 = 0.2692 | 1.842 ± 0.058
308.15 K, x2 = 0.3166 | 1.806 ± 0.057
308.15 K, x2 = 0.3536 | 1.783 ± 0.057
308.15 K, x2 = 0.3967 | 1.758 ± 0.056
308.15 K, x2 = 0.4455 | 1.735 ± 0.055
308.15 K, x2 = 0.4967 | 1.714 ± 0.055
308.15 K, x2 = 0.5574 | 1.696 ± 0.054
308.15 K, x2 = 0.5991 | 1.684 ± 0.054
308.15 K, x2 = 0.6454 | 1.675 ± 0.054
308.15 K, x2 = 0.7094 | 1.667 ± 0.054
308.15 K, x2 = 0.7691 | 1.664 ± 0.054
308.15 K, x2 = 0.8229 | 1.665 ± 0.054
308.15 K, x2 = 0.9132 | 1.68 ± 0.055
318.15 K, x2 = 0.0221 | 1.779 ± 0.056
318.15 K, x2 = 0.0602 | 1.728 ± 0.054
318.15 K, x2 = 0.0938 | 1.687 ± 0.053
318.15 K, x2 = 0.1331 | 1.646 ± 0.052
318.15 K, x2 = 0.1693 | 1.612 ± 0.051
318.15 K, x2 = 0.2101 | 1.576 ± 0.05
318.15 K, x2 = 0.249 | 1.546 ± 0.049
318.15 K, x2 = 0.2933 | 1.516 ± 0.048
318.15 K, x2 = 0.3356 | 1.491 ± 0.047
318.15 K, x2 = 0.3836 | 1.467 ± 0.047
318.15 K, x2 = 0.4273 | 1.448 ± 0.046
318.15 K, x2 = 0.4797 | 1.428 ± 0.046
318.15 K, x2 = 0.5267 | 1.413 ± 0.045
318.15 K, x2 = 0.5825 | 1.399 ± 0.045
318.15 K, x2 = 0.6341 | 1.388 ± 0.045
318.15 K, x2 = 0.6948 | 1.38 ± 0.045
318.15 K, x2 = 0.7506 | 1.377 ± 0.045
318.15 K, x2 = 0.8156 | 1.375 ± 0.045
318.15 K, x2 = 0.8778 | 1.381 ± 0.045

C1COCCOCCOCCOCCO1 + CN(C)C=O
101 kPa
Details | viscosity [mPa·s]
293.15 K, x1 = 0.00344 | 0.8668 ± 0.012
293.15 K, x1 = 0.0059 | 0.8771 ± 0.012
293.15 K, x1 = 0.008679 | 0.8888 ± 0.012
293.15 K, x1 = 0.01131 | 0.8997 ± 0.012
293.15 K, x1 = 0.01335 | 0.9089 ± 0.012
293.15 K, x1 = 0.01528 | 0.9166 ± 0.012
298.15 K, x1 = 0.003438 | 0.8165 ± 0.011
298.15 K, x1 = 0.006613 | 0.8287 ± 0.011
298.15 K, x1 = 0.009181 | 0.8386 ± 0.011
298.15 K, x1 = 0.01161 | 0.8485 ± 0.011
298.15 K, x1 = 0.0137 | 0.8568 ± 0.011
298.15 K, x1 = 0.01547 | 0.8639 ± 0.012
303.15 K, x1 = 0.002196 | 0.7595 ± 0.01
303.15 K, x1 = 0.004812 | 0.7687 ± 0.01
303.15 K, x1 = 0.006882 | 0.7758 ± 0.01
303.15 K, x1 = 0.008916 | 0.7832 ± 0.01
303.15 K, x1 = 0.01094 | 0.7907 ± 0.011
303.15 K, x1 = 0.01259 | 0.797 ± 0.011
308.15 K, x1 = 0.003532 | 0.7213 ± 0.0097
308.15 K, x1 = 0.006367 | 0.7307 ± 0.0099
308.15 K, x1 = 0.008768 | 0.7387 ± 0.01
308.15 K, x1 = 0.01108 | 0.7463 ± 0.01
308.15 K, x1 = 0.01321 | 0.7538 ± 0.01
308.15 K, x1 = 0.01506 | 0.7599 ± 0.01

O=S(=O)([O-])NC1CCCCC1.[K+] + O
viscosity [mPa·s], 101 kPa
Details | x1 = 0.0007156 | x1 = 0.001095 | x1 = 0.001452 | x1 = 0.001751 | x1 = 0.002086 | x1 = 0.002528 | x1 = 0.002966 | x1 = 0.003212 | x1 = 0.003506 | x1 = 0.003747
293.15 K | 1.021 ± 0.0068 | 1.031 ± 0.0069 | 1.041 ± 0.0069 | 1.049 ± 0.007 | 1.058 ± 0.007 | 1.072 ± 0.0071 | 1.085 ± 0.0072 | 1.091 ± 0.0072 | 1.101 ± 0.0073 | 1.107 ± 0.0073
298.15 K | 0.9071 ± 0.0062 | 0.9163 ± 0.0062 | 0.9245 ± 0.0063 | 0.9318 ± 0.0063 | 0.9397 ± 0.0063 | 0.9515 ± 0.0064 | 0.9626 ± 0.0065 | 0.9683 ± 0.0065 | 0.9765 ± 0.0065 | 0.982 ± 0.0066
303.15 K | 0.8126 ± 0.0056 | 0.8204 ± 0.0056 | 0.8278 ± 0.0057 | 0.8343 ± 0.0057 | 0.8412 ± 0.0057 | 0.8514 ± 0.0058 | 0.8611 ± 0.0059 | 0.866 ± 0.0059 | 0.873 ± 0.0059 | 0.8778 ± 0.0059
313.15 K | 0.6648 ± 0.0047 | 0.6714 ± 0.0047 | 0.6773 ± 0.0048 | 0.6823 ± 0.0048 | 0.6878 ± 0.0048 | 0.6957 ± 0.0049 | 0.7032 ± 0.0049 | 0.7073 ± 0.0049 | 0.7127 ± 0.005 | 0.7164 ± 0.005
323.15 K | 0.5565 ± 0.0041 | 0.5615 ± 0.0041 | 0.5663 ± 0.0041 | 0.5703 ± 0.0041 | 0.5748 ± 0.0042 | 0.5809 ± 0.0042 | 0.5873 ± 0.0042 | 0.5902 ± 0.0042 | 0.5948 ± 0.0043 | 0.5977 ± 0.0043
